Laboratory results published in US8463552B1, “Methods for medicinal dosage determination and diagnosis” (priority 2005, dated 2013).

Legend:
[1] = test system: brain volumes of interest (BOLD signal); experiment: BOLD-sensitive fMRI of anesthetized monkey during i.v. infusion of SKF82958; type: in vivo, M. fascicularis; settings: 0.1 mg/kg total i.v. infusion from 10 to 15 min; one VOI in one subject; 1.5% isoflurane; FIG. 12
From the text: To determine how the noise levels in the simulation data just described correspond to realistic biological data, we acquired data using BOLD-sensitive fMRI imaging of an anesthetized monkey with administration of the dopamine agonist SKF82958. Experiments were approved in advance by the Washington University Animal Studies Committee and due care was exercised to prevent discomfort to the animal. During imaging sessions the animal's health was monitored by veterinary staff from the Washington University Division of Comparative Medicine. Two male M. fascicularis monkeys were studied. Imaging was done while the animals were ventilated with 1.5% isoflurane in oxygen. We obtained repeated whole-brain BOLD-sensitive fMRI images at a repetition interval of one every 3 seconds over a 40-minute period. At 10 minutes into the imaging session a steady-rate, slow intravenous infusion of the dopamine D1 agonist. SKF82958 was commenced finishing at 15 minutes, with a total administered dose of 0.1 mg/kg. […] Volumes of interest (VOIs) were traced on structural brain images acquired at the same session. These included left and right caudate, left and right putamen, striatum collectively, whole brain, and a midbrain region. Time-activity curves from each VOI were extracted and submitted to the computer method described above. […]

[2] = test system: whole-brain and regional blood flow; settings: total administered dose 0.1 mg/kg; cited from earlier work

C=CCN1CCc2c(cc(O)c(O)c2Cl)C(c2ccccc2)C1 (stereo not shown) [SKF82958]
Emax (magnitude of BOLD response in VOI time-activity curve) [1]: at least 20
effect on whole-brain mean quantitative blood flow [2]: does not affect
effects on regional blood flow consistent with local neuronal activation [2]: produces reliable effects
safety of dose [2]: safe
